According to US6025349A, “Phenyl.-substituted alkenylcarboguanidides carrying perfluoroalkyl groups, a process for their preparation, their use as a medicament or diagnostic agent, and also a medicament containing them” (priority 1994, dated 2000):
Where a name gives a salt, the structure may show the parent alone.

Key:
[1] = molecular target: T1, Na^+ /H^+ exchanger of rabbit erythrocytes (Oryctolagus cuniculus, UniProt P23791); experiment: Inhibition of the Na^+ /H^+ exchanger of rabbit erythrocytes (amiloride-sensitive sodium influx, flame photometry); type: cell-based; settings: pH 7.4, 37° C., cholesterol-fed White New Zealand rabbits
T1 construct: from tissue; host or cells: rabbit blood (erythrocytes), White New Zealand rabbits
T1 sequence (P23791 whole entry): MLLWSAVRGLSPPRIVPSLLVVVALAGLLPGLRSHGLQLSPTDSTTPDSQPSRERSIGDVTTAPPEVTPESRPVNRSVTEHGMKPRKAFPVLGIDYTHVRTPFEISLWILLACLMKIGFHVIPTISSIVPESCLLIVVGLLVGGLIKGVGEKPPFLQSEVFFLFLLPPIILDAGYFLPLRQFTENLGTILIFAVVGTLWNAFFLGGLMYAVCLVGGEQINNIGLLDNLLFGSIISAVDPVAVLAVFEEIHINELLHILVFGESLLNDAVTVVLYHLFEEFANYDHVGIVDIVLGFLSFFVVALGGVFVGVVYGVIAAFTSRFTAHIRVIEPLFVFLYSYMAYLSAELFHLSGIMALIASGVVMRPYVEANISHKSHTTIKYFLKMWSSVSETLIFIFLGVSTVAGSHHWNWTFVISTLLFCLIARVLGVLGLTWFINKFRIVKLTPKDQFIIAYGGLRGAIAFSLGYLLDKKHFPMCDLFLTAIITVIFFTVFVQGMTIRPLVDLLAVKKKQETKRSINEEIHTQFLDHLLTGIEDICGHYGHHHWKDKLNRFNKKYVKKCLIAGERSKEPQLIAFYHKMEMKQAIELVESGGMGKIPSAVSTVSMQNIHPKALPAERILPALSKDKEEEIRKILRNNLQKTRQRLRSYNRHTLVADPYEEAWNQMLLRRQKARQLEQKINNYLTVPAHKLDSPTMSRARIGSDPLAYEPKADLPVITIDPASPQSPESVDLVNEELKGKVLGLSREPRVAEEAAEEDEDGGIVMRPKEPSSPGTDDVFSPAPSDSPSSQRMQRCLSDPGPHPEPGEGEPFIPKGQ
Text: Inhibition of the Na^+ /H^+ exchanger of rabbit erythrocytes:
White New Zealand rabbits (Ivanovas) received a standard diet containing 2% cholesterol for six weeks in order to activate Na^+ /H^+ exchange and thus to be able to determine the Na^+ influx into the erythrocytes via Na^+ /H^+ exchange by flame photometry. The blood was taken from the ear arteries and anticoagulated by 25 IU/ml potassium heparin. A portion of each sample was used for duplicate determination of the hematocrit by centrifugation. Aliquots each of 100 μl were used to measure the initial Na^+ content of the erythrocytes.
In order to determine the amiloride-sensitive sodium influx, 100 μl of each blood sample were incubated in each case in 5 ml of a hyperosmolar salt/sucrose medium (mmol/l: 140 NaCl, 3 KCl, 150 sucrose, 0.1 ouabain, 20 tris-hydroxymethylaminomethane) at pH 7.4 and 37° C. The erythrocytes were then washed three times with ice-cold MgCl2 /ouabain solution (mmol/l: 112 MgCl2, 0.1 ouabain) and hemolyzed in 2.0 ml of distilled water. The intracellular sodium content was determined by flame photometry.
The net Na^+ influx was calculated from the difference between the initial sodium levels and the sodium content of the erythrocytes after incubation. The sodium influx which can be inhibited by amiloride was found from the difference in the sodium content of the erythrocytes after incubation with and without amiloride 3×10^-4 mol/l. The compounds according to the invention were also subjected to this process.

rat hearts = settings: isolated rat hearts; Eur. Heart J. 9 (suppl. 1): 167 (1988); cited from earlier work
[2] = system: cardiac rhythm disturbances; settings: cited from earlier work

Row | Structure (SMILES) | IC50 [1] [µM] | suppression of artificially induced ventricular fibrillation (rat hearts) | antiarrhythmic effect ([2]; Circulation 79, 1257-63 (1989)) | accompanying side effects ([2]; in vivo)
1 | NC(N)=NC(=O)C=Cc1cccc(C(F)(F)F)c1 [Example 1, Meta-Trifluoromethylcinnamic Acid Guanidide Hydrochloride] | < 1 |  |  | 
2 | C/C(=C\c1cccc(C(F)(F)F)c1)C(=O)N=C(N)N [Example 3, Trans-2-Methyl-3-(3-Trifluoromethylphenyl)-Acrylic Acid Guanidide] | < 1 |  |  | 
3 | C/C(C(=O)N=C(N)N)=C(/C)c1cc(C(F)(F)F)ccc1F [Example 10, Trans-2,3-Dimethyl-3-[2-Fluoro-5-Trifluoromethyl-Phenyl]-Acrylic Acid Guanidide] | < 1 |  |  | 
4 | N=C(N)NC(=O)c1nc(Cl)c(N)nc1N [amiloride] |  | completely to suppress artificially induced ventricular fibrillation | only weak | blood pressure-lowering and saluretic effect
5 | CCN(c1nc(N)c(C(=O)NC(=N)N)nc1Cl)C(C)C [ethylisopropylamiloride] |  | Even more potent than amiloride |  | 
